This passage reports GI50 and TGI results from PubChem BioAssay (NCI).

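Cells were grown in 96-well plates and exposed to each compound for 48 hours at five concentrations; endpoints were interpolated linearly between bracketing concentrations, or set to the highest concentration if not reached. The concentration for 50% growth inhibition is given as GI50. TGI denotes the concentration required for complete inhibition of growth.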

Test systems include BT-549 breast; UO-31 renal; SNB-75 CNS; HOP-92 NSCLC; IGROV1 ovarian; NCI-H226 lung; SN12C renal; UACC-257 melanoma; SF-268 CNS; HCC-2998 colon.
What all share (assay): NCI anticancer screen, dose series, 48 h

Take `O=C1/C=C/[C@@H](O)[C@@H]2C[C@@H](O)C[C@H]2/C=C/CCC[C@H](CCO)O1`: the GI50 was 0.33 µM with BT-549 breast; 0.22 µM in the assay on UO-31 renal; 0.0994 µM in the assay with SNB-75 CNS; 0.233 µM with HOP-92 NSCLC; 0.382 µM in the assay on IGROV1 ovarian; 0.0684 µM with NCI-H226 lung. Moreover, the GI50 in the assay with SN12C renal is 0.314 µM; in the assay on UACC-257 melanoma it was 0.0609 µM; with SF-268 CNS it was 0.0782 µM; in the assay on HCC-2998 colon, 0.227 µM. Moreover, the TGI with BT-549 breast is greater than 31.5 µM; with UO-31 renal, greater than 100 µM; with SNB-75 CNS, greater than 100 µM; in the assay on HOP-92 NSCLC, 0.93 µM; in the assay on IGROV1 ovarian it was greater than 100 µM; with NCI-H226 lung, 0.287 µM. Also, the TGI with SN12C renal was greater than 80.9 µM; in the assay on UACC-257 melanoma, greater than 100 µM; with SF-268 CNS it was greater than 73 µM.
For `CN1CCN(Cc2ccc(NC(=O)c3cncc(C#Cc4ccc(N)nc4)c3)cc2C(F)(F)F)CC1`, the GI50 in the assay with BT-549 breast was 1.62 µM; with UO-31 renal it was 0.716 µM; with SNB-75 CNS, 1.06 µM; in the assay on HOP-92 NSCLC, 0.408 µM; in the assay with IGROV1 ovarian it was 0.476 µM; in the assay with NCI-H226 lung, 0.358 µM. The GI50 in the assay on SN12C renal is 1.11 µM; in the assay with UACC-257 melanoma, 1.42 µM; with SF-268 CNS, 1.09 µM; in the assay with HCC-2998 colon, 1.96 µM. In addition, the TGI came to 6.43 µM with BT-549 breast; 2.93 µM in the assay on UO-31 renal; 3.53 µM with SNB-75 CNS; 1.76 µM in the assay on HOP-92 NSCLC; 3.22 µM with IGROV1 ovarian; 2.75 µM in the assay on NCI-H226 lung. Besides, the TGI with SN12C renal was 5.17 µM; with UACC-257 melanoma, 5.27 µM; in the assay on SF-268 CNS, 5.3 µM; with HCC-2998 colon, 6.96 µM.
In the case of `Cc1ccc2ccccc2c1CSc1nc(N)nc2c1ncn2CC(C)C`, the TGI was greater than 100 µM in the assay on BT-549 breast; 13.2 µM with UO-31 renal; greater than 100 µM in the assay with SNB-75 CNS; greater than 100 µM in the assay on HOP-92 NSCLC; greater than 100 µM in the assay with IGROV1 ovarian; 72.7 µM with NCI-H226 lung. Further, the TGI was greater than 100 µM in the assay with SN12C renal, greater than 87.3 µM in the assay with UACC-257 melanoma, greater than 100 µM with SF-268 CNS and greater than 71.6 µM in the assay with HCC-2998 colon.
Turning to `COC(=O)Nc1nc2ccc(C(=O)c3cccc(I)c3)cc2[nH]1`, the GI50 is 0.16 µM in the assay with BT-549 breast; 0.316 µM in the assay on UO-31 renal; 0.0514 µM in the assay on SNB-75 CNS; 0.0985 µM in the assay on HOP-92 NSCLC; 0.11 µM with IGROV1 ovarian; 0.259 µM in the assay with NCI-H226 lung. Besides, the GI50 is 0.125 µM with SN12C renal, 15.1 µM in the assay with UACC-257 melanoma, 0.18 µM in the assay with SF-268 CNS and 0.208 µM in the assay on HCC-2998 colon. The TGI with BT-549 breast came to 6.57 µM; in the assay on UO-31 renal, 17.2 µM; with SNB-75 CNS, 15.4 µM; with HOP-92 NSCLC, 11.7 µM; in the assay on IGROV1 ovarian it was 8.82 µM; in the assay on NCI-H226 lung, 25.4 µM. Further, the TGI is greater than 33.3 µM in the assay on SN12C renal, greater than 100 µM in the assay on UACC-257 melanoma, 17.5 µM in the assay with SF-268 CNS and 30.6 µM in the assay with HCC-2998 colon.
As to `COc1cc(OC)c(/C=C/C(=O)c2c(OC)cc(OC)cc2OC)c(OC)c1`, the GI50 is 0.931 µM in the assay with BT-549 breast; 2.23 µM in the assay on UO-31 renal; 1.83 µM in the assay on SNB-75 CNS; 0.534 µM in the assay on HOP-92 NSCLC; 0.577 µM with IGROV1 ovarian; 3.41 µM with NCI-H226 lung. The GI50 was 1.81 µM in the assay on SN12C renal, 3.58 µM with UACC-257 melanoma, 1.84 µM with SF-268 CNS and 1.24 µM in the assay with HCC-2998 colon. In addition, the TGI is greater than 24.5 µM in the assay with BT-549 breast; greater than 100 µM in the assay on UO-31 renal; greater than 26.2 µM with SNB-75 CNS; 6.5 µM with HOP-92 NSCLC; 25.2 µM in the assay with IGROV1 ovarian; greater than 100 µM with NCI-H226 lung. In addition, the TGI was greater than 74.4 µM in the assay with SN12C renal, greater than 100 µM in the assay with UACC-257 melanoma, 6.96 µM in the assay with SF-268 CNS and 10 µM with HCC-2998 colon.
For the compound `C=CCc1c(O)c(C(=O)/C=C/c2ccc(Cl)cc2)c(OC)c2ccoc12`, the GI50 in the assay on BT-549 breast was 3 µM; in the assay with UO-31 renal, 2.88 µM; in the assay on SNB-75 CNS, 2.01 µM; in the assay on HOP-92 NSCLC, 1.69 µM; in the assay on IGROV1 ovarian, 3.46 µM; in the assay on NCI-H226 lung, 1.52 µM. The GI50 with SN12C renal was 4.96 µM; with UACC-257 melanoma it was 2.39 µM; in the assay on SF-268 CNS, 3.25 µM; in the assay on HCC-2998 colon, 1.79 µM. Also, the TGI in the assay with BT-549 breast was found to be 11 µM; in the assay with UO-31 renal, 13.3 µM; with SNB-75 CNS, 9.11 µM; in the assay with HOP-92 NSCLC, 5.94 µM; in the assay with IGROV1 ovarian, 14.9 µM; in the assay with NCI-H226 lung, 2.97 µM. Moreover, the TGI came out at 16.9 µM in the assay with SN12C renal, 6.62 µM with UACC-257 melanoma, 12 µM in the assay with SF-268 CNS and 3.26 µM with HCC-2998 colon.
As to `CCN1CCN(C(=O)[C@]23CC[C@@H](C)[C@H](C)[C@@H]2C2=CC[C@@H]4[C@@]5(C)CCC(=O)C(C)(C)[C@@H]5CC[C@@]4(C)[C@]2(C)CC3)CC1`, the GI50 in the assay on BT-549 breast is 0.833 µM; in the assay on UO-31 renal it was 0.726 µM; in the assay with SNB-75 CNS, 1.03 µM; in the assay on HOP-92 NSCLC, 0.713 µM; with IGROV1 ovarian, 1.4 µM; in the assay with NCI-H226 lung, 1.78 µM. Also, the GI50 is 0.776 µM in the assay on SN12C renal, 0.985 µM in the assay on UACC-257 melanoma, 1.77 µM in the assay with SF-268 CNS and 0.922 µM with HCC-2998 colon. The TGI turned out to be 1.58 µM with BT-549 breast; 1.42 µM in the assay on UO-31 renal; 3.82 µM in the assay with SNB-75 CNS; 2.06 µM in the assay with HOP-92 NSCLC; 4.85 µM with IGROV1 ovarian; 7.01 µM in the assay with NCI-H226 lung. For the same compound, the TGI in the assay with SN12C renal was determined as 1.48 µM; in the assay with UACC-257 melanoma, 2.19 µM; in the assay with SF-268 CNS, 6.49 µM; in the assay on HCC-2998 colon it was 1.82 µM.
Consider `CC(C)(C)NCC(O)c1ccccc1Cl` (centres undefined), for which the GI50 in the assay on BT-549 breast, with UO-31 renal, with SNB-75 CNS, with HOP-92 NSCLC, in the assay with IGROV1 ovarian and with NCI-H226 lung was greater than 100 µM in each case. Besides, the GI50 with SN12C renal, in the assay with UACC-257 melanoma, in the assay on SF-268 CNS and in the assay on HCC-2998 colon was greater than 100 µM throughout. Besides, the TGI in the assay on BT-549 breast, in the assay with UO-31 renal, in the assay on SNB-75 CNS, in the assay with HOP-92 NSCLC, in the assay with IGROV1 ovarian and in the assay with NCI-H226 lung was greater than 100 µM throughout. In addition, the TGI in the assay on SN12C renal, in the assay on UACC-257 melanoma, in the assay on SF-268 CNS and in the assay on HCC-2998 colon was greater than 100 µM throughout.
In the case of `Cc1cc(OCc2ccc(C(F)(F)F)cc2)c2c(c1)C(=O)C=C(NCCN1CCCC1)C2=O`, the GI50 was 2.05 µM in the assay with BT-549 breast; 2.19 µM in the assay on UO-31 renal; 1.49 µM with SNB-75 CNS; 1.96 µM in the assay with HOP-92 NSCLC; 6.69 µM with IGROV1 ovarian; 14.6 µM with NCI-H226 lung. Moreover, the GI50 is 9.86 µM in the assay with SN12C renal, 1.67 µM with UACC-257 melanoma, 1.97 µM in the assay with SF-268 CNS and 1.87 µM in the assay with HCC-2998 colon. In addition, the TGI in the assay with BT-549 breast worked out at 5.36 µM; in the assay on UO-31 renal, 4.93 µM; in the assay with SNB-75 CNS it was 2.89 µM; with HOP-92 NSCLC, 7.38 µM; with IGROV1 ovarian, 25.1 µM; in the assay with NCI-H226 lung, 35.2 µM. The TGI was 28.3 µM in the assay with SN12C renal, 3.27 µM in the assay with UACC-257 melanoma, 4.24 µM in the assay with SF-268 CNS and 3.46 µM in the assay on HCC-2998 colon.
For the compound `CCOC(=O)N1CCC(N=C2CSc3nnc(-c4cc(C(F)(F)F)cc(C(F)(F)F)c4)n3N2)CC1`, the GI50 in the assay on BT-549 breast is 1.89 µM; with UO-31 renal, 1.66 µM; with SNB-75 CNS, 1.92 µM; in the assay with HOP-92 NSCLC, 1.97 µM; with IGROV1 ovarian, 1.9 µM; with NCI-H226 lung, 2.16 µM. Further, the GI50 is 1.7 µM in the assay with SN12C renal, 1.76 µM in the assay with UACC-257 melanoma, 2.23 µM with SF-268 CNS and 2.25 µM in the assay with HCC-2998 colon. In addition, the TGI with BT-549 breast stood at 3.79 µM; in the assay with UO-31 renal it was 5.4 µM; with SNB-75 CNS, 5.54 µM; with HOP-92 NSCLC it was 5 µM; in the assay with IGROV1 ovarian it was 4.79 µM; in the assay with NCI-H226 lung it was 5.02 µM. In addition, the TGI stood at 3.57 µM in the assay on SN12C renal, 3.81 µM in the assay on UACC-257 melanoma, 4.86 µM in the assay with SF-268 CNS and 4.78 µM in the assay on HCC-2998 colon.
In the case of `CC(C)[C@@H](C(=O)O[C@@H]1/C=C/C(=O)O[C@@H](C)CCC/C=C/[C@@H]2C[C@H](O)C[C@H]21)N(C)C`, the GI50 in the assay with BT-549 breast was 9.41 µM; in the assay on UO-31 renal it was 23.1 µM; in the assay on SNB-75 CNS, 2.89 µM; in the assay on HOP-92 NSCLC, 0.0403 µM; in the assay on IGROV1 ovarian it was 30.3 µM; in the assay on NCI-H226 lung, 9.21 µM. The GI50 with SN12C renal is 28.4 µM; in the assay with UACC-257 melanoma, 20.8 µM; in the assay on SF-268 CNS, 7.33 µM; in the assay with HCC-2998 colon it was 20 µM. In addition, the TGI in the assay on BT-549 breast is 32 µM; in the assay with UO-31 renal it was greater than 100 µM; in the assay with SNB-75 CNS, 27.7 µM; with HOP-92 NSCLC, 0.0954 µM; in the assay with IGROV1 ovarian it was greater than 89 µM; with NCI-H226 lung it was 36.4 µM. The TGI is greater than 62.1 µM with SN12C renal, greater than 81.9 µM in the assay with UACC-257 melanoma, greater than 45 µM in the assay on SF-268 CNS and 55.1 µM in the assay with HCC-2998 colon.
